System: MV-4-11 cells
Assay: Gene expression microarray analysis (Affymetrix PrimeView) and GSEA
Type: cell-based, human
Parameters: RFU PODN (11730768_x_at) / Fold change /veh PODN (11730768_x_at) / RFU LINC00158 (11744669_a_at) / Fold change /veh LINC00158 (11744669_a_at) / RFU DUSP10 (11751237_a_at) / Fold change /veh DUSP10 (11751237_a_at) / RFU ID3 (11757404_x_at) / Fold change /veh ID3 (11757404_x_at) / RFU PLEKHG5 (11737974_s_at) / Fold change /veh PLEKHG5 (11737974_s_at) / RFU LRRC4B (11730491_at) / Fold change /veh LRRC4B (11730491_at) / RFU GIMAP4 (11747438_a_at) / Fold change /veh GIMAP4 (11747438_a_at) / RFU KRT8 (11758183_x_at) / Fold change /veh KRT8 (11758183_x_at) / RFU CNN1 (11734310_a_at) / Fold change /veh CNN1 (11734310_a_at) / RFU VPS37D (11726825_at) / Fold change /veh VPS37D (11726825_at) / RFU C10orf10 (11716522_x_at) / Fold change /veh C10orf10 (11716522_x_at) / RFU KIR2DL2 /// KIR2DL4 /// KIR2DL5A /// KIR2DL5B /// KIR2DS1 /// KIR2DS2 /// KIR2DS3 /// KIR2DS4 /// KIR3DL3 /// KIR3DL3 /// KIR3DS1 (11738374_at) / Fold change /veh KIR2DL2 /// KIR2DL4 /// KIR2DL5A /// KIR2DL5B /// KIR2DS1 /// KIR2DS2 /// KIR2DS3 /// KIR2DS4 /// KIR3DL3 /// KIR3DL3 /// KIR3DS1 (11738374_at) / RFU C1QL1 (11718748_at) / Fold change /veh C1QL1 (11718748_at) / RFU TMPRSS4 (11747572_a_at) / Fold change /veh TMPRSS4 (11747572_a_at) / RFU HAMP (11756126_x_at) / Fold change /veh HAMP (11756126_x_at) / RFU RNFT2 (11725882_a_at) / Fold change /veh RNFT2 (11725882_a_at) / RFU NR4A2 (11747474_a_at) / Fold change /veh NR4A2 (11747474_a_at) / RFU ABCC12 (11746883_a_at) / Fold change /veh ABCC12 (11746883_a_at) / RFU TMEM136 (11760407_x_at) / Fold change /veh TMEM136 (11760407_x_at) / RFU CLDN22 /// WWC2 (11732394_at) / Fold change /veh CLDN22 /// WWC2 (11732394_at) / RFU HLA-DPB1 (11760878_x_at) / Fold change /veh HLA-DPB1 (11760878_x_at) / RFU SPINT1 (11716480_a_at) / Fold change /veh SPINT1 (11716480_a_at) / RFU GAP43 (11754022_s_at) / Fold change /veh GAP43 (11754022_s_at) / RFU A4GNT (11735810_at) / Fold change /veh A4GNT (11735810_at) / RFU PRB3 (11715151_x_at) / Fold change /veh PRB3 (11715151_x_at) / RFU TUBB4B (11761932_at) / Fold change /veh TUBB4B (11761932_at) / RFU CAPN14 (11732068_a_at) / Fold change /veh CAPN14 (11732068_a_at) / RFU TMCC2 (11721928_a_at) / Fold change /veh TMCC2 (11721928_a_at) / RFU IRGQ (11745062_a_at) / Fold change /veh IRGQ (11745062_a_at) / RFU FAM174B (11720279_a_at) / Fold change /veh FAM174B (11720279_a_at) / RFU TMPRSS4 (11748680_a_at) / Fold change /veh TMPRSS4 (11748680_a_at) / RFU FAM212B (11763350_a_at) / Fold change /veh FAM212B (11763350_a_at) / RFU PLEKHG5 (11743358_a_at) / Fold change /veh PLEKHG5 (11743358_a_at) / RFU ZSCAN30 (11745921_a_at) / Fold change /veh ZSCAN30 (11745921_a_at) / RFU CMKLR1 (11741424_a_at) / Fold change /veh CMKLR1 (11741424_a_at) / RFU LOC101060620 /// MAPK8IP1 (11723275_at) / Fold change /veh LOC101060620 /// MAPK8IP1 (11723275_at) / RFU SPTSSB (11747773_x_at) / Fold change /veh SPTSSB (11747773_x_at) / RFU PRSS12 (11739890_at) / Fold change /veh PRSS12 (11739890_at) / RFU BIN1 (11741810_x_at) / Fold change /veh BIN1 (11741810_x_at) / RFU WNT11 (11732464_a_at) / Fold change /veh WNT11 (11732464_a_at) / RFU C10orf10 (11716521_a_at) / Fold change /veh C10orf10 (11716521_a_at) / RFU C5orf56 (11738089_at) / Fold change /veh C5orf56 (11738089_at) / RFU CYB561 (11721691_x_at) / Fold change /veh CYB561 (11721691_x_at) / RFU ANKRD19P (11752326_a_at) / Fold change /veh ANKRD19P (11752326_a_at) / RFU OR2T12 /// OR2T33 /// OR2T8 (11738714_s_at) / Fold change /veh OR2T12 /// OR2T33 /// OR2T8 (11738714_s_at) / RFU VCAN (11748164_a_at) / Fold change /veh VCAN (11748164_a_at) / RFU JSRP1 (11732532_at) / Fold change /veh JSRP1 (11732532_at) / RFU KRTAP10-11 (11738290_x_at) / Fold change /veh KRTAP10-11 (11738290_x_at) / RFU MYO3A (11730013_a_at) / Fold change /veh MYO3A (11730013_a_at) / RFU EBF3 (11725865_a_at) / Fold change /veh EBF3 (11725865_a_at) / RFU CAMK2N1 (11719241_x_at) / Fold change /veh CAMK2N1 (11719241_x_at) / RFU C5orf56 (11738088_a_at) / Fold change /veh C5orf56 (11738088_a_at) / RFU OLFML3 (11715873_a_at) / Fold change /veh OLFML3 (11715873_a_at) / RFU LOC100653217 /// NTM (11731650_a_at) / Fold change /veh LOC100653217 /// NTM (11731650_a_at) / RFU MAPK11 (11762145_a_at) / Fold change /veh MAPK11 (11762145_a_at) / RFU FIZ1 (11724087_x_at) / Fold change /veh FIZ1 (11724087_x_at) / RFU OASL (11726364_x_at) / Fold change /veh OASL (11726364_x_at) / RFU SOX15 (11748057_x_at) / Fold change /veh SOX15 (11748057_x_at) / RFU CD79A (11719716_a_at) / Fold change /veh CD79A (11719716_a_at) / RFU HIST1H1D (11736915_at) / Fold change /veh HIST1H1D (11736915_at) / RFU CASKIN2 (11723855_a_at) / Fold change /veh CASKIN2 (11723855_a_at) / RFU LOC730098 (11760151_x_at) / Fold change /veh LOC730098 (11760151_x_at) / RFU OR4N2 (11742367_at) / Fold change /veh OR4N2 (11742367_at) / RFU PRRT2 (11749266_a_at) / Fold change /veh PRRT2 (11749266_a_at) / RFU SNX32 (11753110_a_at) / Fold change /veh SNX32 (11753110_a_at) / RFU CDHR5 (11726645_a_at) / Fold change /veh CDHR5 (11726645_a_at) / RFU RCAN1 (11760418_a_at) / Fold change /veh RCAN1 (11760418_a_at) / RFU FAM167A (11723789_a_at) / Fold change /veh FAM167A (11723789_a_at) / RFU FAM26E (11764081_at) / Fold change /veh FAM26E (11764081_at) / RFU ISYNA1 (11749810_s_at) / Fold change /veh ISYNA1 (11749810_s_at) / RFU ACY1 (11761880_at) / Fold change /veh ACY1 (11761880_at) / RFU 11764098_at / Fold change /veh 11764098_at / RFU SAMD14 (11745864_x_at) / Fold change /veh SAMD14 (11745864_x_at) / RFU NPB (11741838_a_at) / Fold change /veh NPB (11741838_a_at) / RFU TMPRSS6 (11731388_a_at) / Fold change /veh TMPRSS6 (11731388_a_at) / RFU KRTAP10-2 (11738614_at) / Fold change /veh KRTAP10-2 (11738614_at) / RFU ARHGAP8 /// PRR5-ARHGAP8 (11727945_x_at) / Fold change /veh ARHGAP8 /// PRR5-ARHGAP8 (11727945_x_at) / RFU KRTAP5-7 /// NADSYN1 (11734609_at) / Fold change /veh KRTAP5-7 /// NADSYN1 (11734609_at) / RFU RASL12 (11751679_a_at) / Fold change /veh RASL12 (11751679_a_at) / RFU CDKN2B (11736163_a_at) / Fold change /veh CDKN2B (11736163_a_at) / RFU PRF1 (11729649_at) / Fold change /veh PRF1 (11729649_at) / RFU, ZNF638 /// ZNF638-IT1 / Fold change vs veh, ZNF638 /// ZNF638-IT1 / RFU, PANK3 / Fold change vs veh, PANK3 / RFU, SH3YL1 / Fold change vs veh, SH3YL1 / RFU, ZEB2 / Fold change vs veh, ZEB2 / RFU, NRIP1 / Fold change vs veh, NRIP1 / RFU, PTTG1IP / Fold change vs veh, PTTG1IP / RFU, CAPN2 / Fold change vs veh, CAPN2 / RFU, MED14 / Fold change vs veh, MED14 / RFU, SNORA58 / Fold change vs veh, SNORA58 / RFU, C1orf63 / Fold change vs veh, C1orf63 / RFU, LRRFIP1 / Fold change vs veh, LRRFIP1 / RFU, NDUFAF7 / Fold change vs veh, NDUFAF7 / RFU, SLC12A2 / Fold change vs veh, SLC12A2 / RFU, IBTK / Fold change vs veh, IBTK / RFU, ESF1 / Fold change vs veh, ESF1 / Fold change vs veh, TMEM50B / RFU, TAOK1 / Fold change vs veh, TAOK1 / RFU, ACBD3 / Fold change vs veh, ACBD3 / RFU, TMA16 / Fold change vs veh, TMA16 / RFU, RWDD3 / Fold change vs veh, RWDD3 / RFU, BCAT1 / Fold change vs veh, BCAT1 / RFU, EDEM3 / Fold change vs veh, EDEM3 / RFU, TMEM33 / Fold change vs veh, TMEM33 / RFU, WDR75 / Fold change vs veh, WDR75 / RFU, AHCTF1 / Fold change vs veh, AHCTF1 / RFU, TFRC / Fold change vs veh, TFRC / RFU, ZDHHC17 / Fold change vs veh, ZDHHC17 / RFU, NOM1 / Fold change vs veh, NOM1 / RFU, ARL8B / Fold change vs veh, ARL8B / RFU, ZBTB11 / Fold change vs veh, ZBTB11 / RFU, TAMM41 / Fold change vs veh, TAMM41 / RFU, KIAA1704 /// LOC100996395 / Fold change vs veh, KIAA1704 /// LOC100996395 / RFU, ING1 / Fold change vs veh, ING1 / RFU, TRMT61B / Fold change vs veh, TRMT61B / RFU, FUBP3 / Fold change vs veh, FUBP3 / RFU, TP53 / Fold change vs veh, TP53 / RFU, TNKS2 / Fold change vs veh, TNKS2 / RFU, ZFP14 / Fold change vs veh, ZFP14 / RFU, ACTR2 / Fold change vs veh, ACTR2 / RFU, PPP3R1 / Fold change vs veh, PPP3R1 / RFU, PIK3R1 / Fold change vs veh, PIK3R1 / RFU, HNRNPA1 / Fold change vs veh, HNRNPA1 / RFU, RNF170 / Fold change vs veh, RNF170 / RFU, ZNF28 / Fold change vs veh, ZNF28 / RFU, RNGTT / Fold change vs veh, RNGTT / RFU, OGT / Fold change vs veh, OGT / RFU, BRD1 / Fold change vs veh, BRD1 / RFU, MARS / Fold change vs veh, MARS / RFU, ZNF655 / Fold change vs veh, ZNF655 / RFU, FAHD1 / Fold change vs veh, FAHD1 / RFU, BDP1 / Fold change vs veh, BDP1 / RFU, LRRCC1 / Fold change vs veh, LRRCC1 / RFU, ARID1A / Fold change vs veh, ARID1A / RFU, ZNF146 / Fold change vs veh, ZNF146 / RFU, ZNF330 / Fold change vs veh, ZNF330 / RFU, GPN3 / Fold change vs veh, GPN3 / RFU, C9orf123 / Fold change vs veh, C9orf123 / RFU, N4BP2L2 / Fold change vs veh, N4BP2L2 / RFU, ARFIP1 / Fold change vs veh, ARFIP1 / RFU, FAM179B / Fold change vs veh, FAM179B / RFU, BCL10 / Fold change vs veh, BCL10 / RFU, UHRF1BP1L / Fold change vs veh, UHRF1BP1L / RFU, BET1 / Fold change vs veh, BET1 / RFU, CNOT2 / Fold change vs veh, CNOT2 / RFU, ZNF268 / Fold change vs veh, ZNF268 / Fold change vs veh, ZNF507 / RFU, DGCR2 / Fold change vs veh, DGCR2 / RFU, WDSUB1 / Fold change vs veh, WDSUB1 / Fold change vs veh, HSP90B1 /// MIR3652 / RFU, ADSS / Fold change vs veh, ADSS / RFU, GK / Fold change vs veh, GK / RFU, ZNF148 / Fold change vs veh, ZNF148 / RFU, TAF9 / Fold change vs veh, TAF9 / RFU, SLC1A5 / Fold change vs veh, SLC1A5 / RFU, SLMO2 / Fold change vs veh, SLMO2 / RFU, ABCC4 / Fold change vs veh, ABCC4 / RFU, LOC101060439 /// RAP1B / Fold change vs veh, LOC101060439 /// RAP1B / RFU, RFX7 / Fold change vs veh, RFX7 / RFU, GTPBP10 / Fold change vs veh, GTPBP10 / RFU, CNEP1R1 / Fold change vs veh, CNEP1R1 / RFU, BIVM-ERCC5 /// ERCC5 / Fold change vs veh, BIVM-ERCC5 /// ERCC5 / RFU, ILF3 / Fold change vs veh, ILF3 / RFU 11762660_at / Fold change /veh 11762660_at / RFU VCAN (11757783_s_at) / Fold change /veh VCAN (11757783_s_at) / RFU DDX43 (11728927_at) / Fold change /veh DDX43 (11728927_at) / RFU KRT8 (11758188_x_at) / Fold change /veh KRT8 (11758188_x_at) / RFU NKD1 (11759106_at) / Fold change /veh NKD1 (11759106_at) / RFU SRD5A1 (11742802_a_at) / Fold change /veh SRD5A1 (11742802_a_at) / RFU TPSAB1 /// TPSB2 (11721975_s_at) / Fold change /veh TPSAB1 /// TPSB2 (11721975_s_at) / RFU GSTM3 (11746129_a_at) / Fold change /veh GSTM3 (11746129_a_at) / RFU IL23R (11737362_x_at) / Fold change /veh IL23R (11737362_x_at) / RFU TMEM51 (11727254_a_at) / Fold change /veh TMEM51 (11727254_a_at) / RFU PIWIL2 (11732686_x_at) / Fold change /veh PIWIL2 (11732686_x_at) / RFU ORM1 (11744905_x_at) / Fold change /veh ORM1 (11744905_x_at) / RFU CCDC152 (11743942_at) / Fold change /veh CCDC152 (11743942_at) / RFU ECM1 (11717891_a_at) / Fold change /veh ECM1 (11717891_a_at) / RFU IL23R (11748794_a_at) / Fold change /veh IL23R (11748794_a_at) / RFU TNFAIP8L3 (11732012_x_at) / Fold change /veh TNFAIP8L3 (11732012_x_at) / RFU MBOAT4 (11741988_at) / Fold change /veh MBOAT4 (11741988_at) / RFU 11764193_at / Fold change /veh 11764193_at / RFU TMEM53 (11763286_at) / Fold change /veh TMEM53 (11763286_at) / RFU MAGEB2 (11727129_at) / Fold change /veh MAGEB2 (11727129_at) / RFU TMEM200A (11744735_a_at) / Fold change /veh TMEM200A (11744735_a_at) / RFU CCDC152 (11751479_a_at) / Fold change /veh CCDC152 (11751479_a_at) / RFU FAM211A (11726209_a_at) / Fold change /veh FAM211A (11726209_a_at) / RFU RGS16 (11746705_a_at) / Fold change /veh RGS16 (11746705_a_at) / RFU VCAN (11755009_s_at) / Fold change /veh VCAN (11755009_s_at) / RFU RHOB (11743442_s_at) / Fold change /veh RHOB (11743442_s_at) / RFU RGS16 (11720943_a_at) / Fold change /veh RGS16 (11720943_a_at) / RFU RGS16 (11720944_at) / Fold change /veh RGS16 (11720944_at) / RFU, VPS4B / Fold change vs veh, VPS4B / RFU, CREB1 / Fold change vs veh, CREB1 / RFU, DNAJC13 / Fold change vs veh, DNAJC13 / RFU, GNAQ / Fold change vs veh, GNAQ / RFU, CDK5R1 / Fold change vs veh, CDK5R1 / RFU, ZRANB3 / Fold change vs veh, ZRANB3 / RFU, CUL4A / Fold change vs veh, CUL4A / RFU, CCNY / Fold change vs veh, CCNY / RFU, UFL1 / Fold change vs veh, UFL1 / RFU, COG3 / Fold change vs veh, COG3 / RFU, DIAPH2 / Fold change vs veh, DIAPH2 / RFU, SKA2 / Fold change vs veh, SKA2 / RFU, AFF3 / Fold change vs veh, AFF3 / RFU, LMF1 / Fold change vs veh, LMF1 / RFU, IPO11 / Fold change vs veh, IPO11 / RFU, DFFB / Fold change vs veh, DFFB / RFU, FOXP1 / Fold change vs veh, FOXP1 / RFU, CARD8 / Fold change vs veh, CARD8 / RFU, STRN3 / Fold change vs veh, STRN3 / RFU, ADK / Fold change vs veh, ADK / RFU, RASSF2 / Fold change vs veh, RASSF2 / RFU, WIPF1 / Fold change vs veh, WIPF1 / RFU, LARP1B / Fold change vs veh, LARP1B / RFU, RASA1 / Fold change vs veh, RASA1 / RFU, RB1 / Fold change vs veh, RB1 / RFU, PPFIA1 / Fold change vs veh, PPFIA1 / RFU, MAT2A / Fold change vs veh, MAT2A / RFU, CCT5 / Fold change vs veh, CCT5 / RFU, WDR92 / Fold change vs veh, WDR92 / RFU, CUX1 / Fold change vs veh, CUX1 / RFU, TTC7A / Fold change vs veh, TTC7A / RFU, TMEM135 / Fold change vs veh, TMEM135 / RFU, DEPTOR / Fold change vs veh, DEPTOR / RFU, CPM / Fold change vs veh, CPM / RFU, DNAJB6 / Fold change vs veh, DNAJB6 / RFU, CACNA2D3 / Fold change vs veh, CACNA2D3 / RFU, DTX4 / Fold change vs veh, DTX4 / RFU, TFCP2 / Fold change vs veh, TFCP2 / RFU, GMCL1 /// GMCL1P1 / Fold change vs veh, GMCL1 /// GMCL1P1 / RFU, AEBP2 / Fold change vs veh, AEBP2 / RFU, SNHG1 /// SNORD22 /// SNORD25 /// SNORD26 /// SNORD27 /// SNORD28 /// SNORD29 /// SNORD31 / Fold change vs veh, SNHG1 /// SNORD22 /// SNORD25 /// SNORD26 /// SNORD27 /// SNORD28 /// SNORD29 /// SNORD31 / Fold change (Aza/veh), C12orf56 (ProbeSet 11735607_a_at) / Fold change (ACY-1035/veh), C12orf56 (ProbeSet 11735607_a_at) / Fold change (Aza/veh), FGFR1OP (ProbeSet 11751329_s_at) / Fold change (ACY-1035/veh), FGFR1OP (ProbeSet 11751329_s_at) / Fold change (Aza/veh), VPS36 (ProbeSet 11739960_a_at) / Fold change (ACY-1035/veh), VPS36 (ProbeSet 11739960_a_at) / RFU SYPL1 (11715823_x_at) / Fold change /veh SYPL1 (11715823_x_at) / RFU IGFBP7 (11715501_s_at) / Fold change /veh IGFBP7 (11715501_s_at) / RFU REEP3 (11722064_at) / Fold change /veh REEP3 (11722064_at) / RFU IGLL1 (11728026_x_at) / Fold change /veh IGLL1 (11728026_x_at): dose or concentration left out as unconfirmed
Details: ProbeSet 11757268_x_at; LIST B

With `Nc1ccc(-c2cccs2)cc1NC(=O)c1ccc2c(c1)cc(C1CC1)n2CCN1CCOCC1` [ACY-1035] the “Fold change vs veh, HNRNPA1” value was 0.97.

— PMC5218480 (PLoS ONE, 2017)
